“And” between values parts separate entries of the source, which are not always exact repeats. Equal values may be shown once.

In this assay the test system is Meerschweinchenherzen. The assay is described as follows: Working guinea pig heart, ischaemia/reperfusion with activated PMN and platelets (Versuchsgruppe 1). Details: species or system Meerschweinchen. The note with it: for Herzleistung [% der initialen Leistung] / Interstitielles Volumen / Koronarfluß [% des Basalflusses]: flavone derivative 3*10^-5 M, individual hearts; for protektive Wirkung: ischaemic heart, Versuchsgruppe 1. As to the method:
Pathogene Wirkung von gleichzeitig aktivierten PMN und Thrombozyten im ischämischen Herzen. Als Studienobjekt dienten arbeitende, also Volumen gegen bestimmte Drucke auswerfende Meerschweinchenherzen. […] Thrombin, FMLP ([…]-Formyl-[…]) und […] Interaktion der Blutzellen mit dem koronaren Endothel bei diesen Versuchen. Tabelle 3: ^i Als Blutzellpräparate wurden eingesetzt: a) hochreine PMN (1-2*10^5/ml), […] Vorinkubation mit 100 μM […]) bzw. […] von PMN und TASS (bzw. T) in jeweils analogen Konzentrationen. Tabelle 3 gibt die unter […] bei […] von PMN und Thrombozyten (TASS = […] Vorinkubation mit 100μM […] = nicht […].

[1] abbreviates: PMN+T (platelets not preincubated with Acetylsalicylsäure).
Setting [2] is: PMN+TASS (platelets preincubated 1 h with 100 µM Acetylsalicylsäure, washed).
[3] abbreviates: acute application of the flavonoid alone.
Setting [4] is: flavonoid applied in combination with Acetylsalicylsäure.

Regarding `O=C1CCOc2ccccc21` [4-Chromanon, reference compound], the “protektive Wirkung” value is “keine protektive Wirkung”. Also, under setting [1], the “Herzleistung [% der initialen Leistung]” value was 27 % der initialen Leistung and 29 % der initialen Leistung and 38 % der initialen Leistung and 31 % der initialen Leistung and 17 % der initialen Leistung and 22 % der initialen Leistung; the “Interstitielles Volumen” value was 373 µL/g and 348 µL/g and 354 µL/g and 318 µL/g and 356 µL/g; the “Koronarfluß [% des Basalflusses]” value was 44 % des Basalflusses and 19 % des Basalflusses and 35 % des Basalflusses and 26 % des Basalflusses and 29 % des Basalflusses. Further, under setting [2], the “Herzleistung [% der initialen Leistung]” value is 79 % der initialen Leistung and 81 % der initialen Leistung and 74 % der initialen Leistung and 71 % der initialen Leistung and 69 % der initialen Leistung and 78 % der initialen Leistung; the “Interstitielles Volumen” value is 155 µL/g and 148 µL/g and 168 µL/g and 161 µL/g and 165 µL/g; the “Koronarfluß [% des Basalflusses]” value is 88 % des Basalflusses and 74 % des Basalflusses and 79 % des Basalflusses (2×) and 81 % des Basalflusses and 82 % des Basalflusses.

Regarding `O=c1cc(-c2ccccc2)oc2ccccc12` [Flavon, reference compound], the “protektive Wirkung” value was “keine protektive Wirkung”. Under setting [1], the “Herzleistung [% der initialen Leistung]” value is 31 % der initialen Leistung (2×) and 18 % der initialen Leistung and 35 % der initialen Leistung and 29 % der initialen Leistung; the “Interstitielles Volumen” value is 344 µL/g and 389 µL/g and 388 µL/g and 358 µL/g and 346 µL/g; the “Koronarfluß [% des Basalflusses]” value was 33 % des Basalflusses and 19 % des Basalflusses and 31 % des Basalflusses and 28 % des Basalflusses and 29 % des Basalflusses. Besides, under setting [2], the “Herzleistung [% der initialen Leistung]” value is 78 % der initialen Leistung and 81 % der initialen Leistung and 69 % der initialen Leistung and 82 % der initialen Leistung and 83 % der initialen Leistung; the “Interstitielles Volumen” value was 129 µL/g and 153 µL/g and 145 µL/g and 148 µL/g and 169 µL/g; the “Koronarfluß [% des Basalflusses]” value is 88 % des Basalflusses and 77 % des Basalflusses and 73 % des Basalflusses and 81 % des Basalflusses and 87 % des Basalflusses.

Consider `O=C1C[C@@H](c2ccc(O)cc2)Oc2cc(O)cc(O)c21` [Naringenin], for which, under setting [1], the “Herzleistung [% der initialen Leistung]” value was 63 % der initialen Leistung and 49 % der initialen Leistung and 54 % der initialen Leistung and 69 % der initialen Leistung and 68 % der initialen Leistung; the “Interstitielles Volumen” value is 169 µL/g and 175 µL/g and 189 µL/g and 205 µL/g and 198 µL/g; the “Koronarfluß [% des Basalflusses]” value is 57 % des Basalflusses and 55 % des Basalflusses and 63 % des Basalflusses and 51 % des Basalflusses and 45 % des Basalflusses and 46 % des Basalflusses. Under setting [2], the “Herzleistung [% der initialen Leistung]” value was 90 % der initialen Leistung and 97 % der initialen Leistung and 84 % der initialen Leistung and 94 % der initialen Leistung and 82 % der initialen Leistung and 89 % der initialen Leistung; the “Interstitielles Volumen” value is 98 µL/g and 117 µL/g and 107 µL/g and 109 µL/g and 102 µL/g; the “Koronarfluß [% des Basalflusses]” value was 107 % des Basalflusses and 98 % des Basalflusses and 93 % des Basalflusses and 92 % des Basalflusses and 89 % des Basalflusses and 101 % des Basalflusses. The “Verschlechterung der postischämischen Funktionsdaten (ΔP/Δt; interstitielles Volumen; Koronarfluß)” value under setting [3] was “abgeschwächt”. Besides, the “Verschlechterung der postischämischen Funktionsdaten (ΔP/Δt; interstitielles Volumen; Koronarfluß)” value under setting [4] is recorded as “vollständig aufgehoben”.

`O=c1c(O)c(-c2ccc(O)c(O)c2)oc2cc(O)cc(O)c12` [Quercetin]: under setting [1], the “Herzleistung [% der initialen Leistung]” value was 66 % der initialen Leistung and 69 % der initialen Leistung and 58 % der initialen Leistung and 44 % der initialen Leistung and 70 % der initialen Leistung; the “Interstitielles Volumen” value is 159 µL/g and 178 µL/g and 181 µL/g and 185 µL/g and 162 µL/g; the “Koronarfluß [% des Basalflusses]” value was 61 % des Basalflusses and 49 % des Basalflusses (2×) and 55 % des Basalflusses and 62 % des Basalflusses and 40 % des Basalflusses. Further, under setting [2], the “Herzleistung [% der initialen Leistung]” value is 82 % der initialen Leistung and 86 % der initialen Leistung and 90 % der initialen Leistung and 85 % der initialen Leistung and 94 % der initialen Leistung; the “Interstitielles Volumen” value is 108 µL/g and 113 µL/g and 107 µL/g and 104 µL/g and 125 µL/g and 118 µL/g; the “Koronarfluß [% des Basalflusses]” value was 101 % des Basalflusses and 107 % des Basalflusses and 89 % des Basalflusses and 95 % des Basalflusses and 91 % des Basalflusses. Under setting [3], the “Verschlechterung der postischämischen Funktionsdaten (ΔP/Δt; interstitielles Volumen; Koronarfluß)” value was “abgeschwächt”. In addition, the “Verschlechterung der postischämischen Funktionsdaten (ΔP/Δt; interstitielles Volumen; Koronarfluß)” value under setting [4] is “vollständig aufgehoben”.

With Catechin [reference compound], the “protektive Wirkung” value was “keine protektive Wirkung”. Also, under setting [1], the “Herzleistung [% der initialen Leistung]” value was 36 % der initialen Leistung and 39 % der initialen Leistung and 31 % der initialen Leistung and 26 % der initialen Leistung and 18 % der initialen Leistung; the “Interstitielles Volumen” value is 351 µL/g and 310 µL/g and 311 µL/g and 317 µL/g and 370 µL/g; the “Koronarfluß [% des Basalflusses]” value was 37 % des Basalflusses and 27 % des Basalflusses and 34 % des Basalflusses and 17 % des Basalflusses and 14 % des Basalflusses and 28 % des Basalflusses. Also, under setting [2], the “Herzleistung [% der initialen Leistung]” value was 75 % der initialen Leistung and 68 % der initialen Leistung and 67 % der initialen Leistung and 81 % der initialen Leistung (2×) and 77 % der initialen Leistung; the “Interstitielles Volumen” value is 145 µL/g and 157 µL/g and 163 µL/g and 148 µL/g and 166 µL/g; the “Koronarfluß [% des Basalflusses]” value is 88 % des Basalflusses and 78 % des Basalflusses and 82 % des Basalflusses and 79 % des Basalflusses and 85 % des Basalflusses.

As to Dihydroxyethylrutosid, the “Herzleistung [% der initialen Leistung]” value reads like this: under setting [1], 49 % der initialen Leistung and 58 % der initialen Leistung and 65 % der initialen Leistung and 72 % der initialen Leistung and 78 % der initialen Leistung and 74 % der initialen Leistung; under setting [2], 93 % der initialen Leistung and 94 % der initialen Leistung and 86 % der initialen Leistung and 84 % der initialen Leistung and 89 % der initialen Leistung. For the same compound, the “Interstitielles Volumen” value runs as follows: under setting [1], 144 µL/g and 186 µL/g and 151 µL/g and 157 µL/g and 165 µL/g; under setting [2], 98 µL/g and 104 µL/g and 95 µL/g and 115 µL/g and 107 µL/g and 109 µL/g. In addition, the “Koronarfluß [% des Basalflusses]” value reads like this: under setting [1], 49 % des Basalflusses and 51 % des Basalflusses and 39 % des Basalflusses and 47 % des Basalflusses and 64 % des Basalflusses and 69 % des Basalflusses; under setting [2], 102 % des Basalflusses and 107 % des Basalflusses and 98 % des Basalflusses and 93 % des Basalflusses and 95 % des Basalflusses and 89 % des Basalflusses. Also, the “Verschlechterung der postischämischen Funktionsdaten (ΔP/Δt; interstitielles Volumen; Koronarfluß)” value under setting [3] is given as “abgeschwächt” and the “Verschlechterung der postischämischen Funktionsdaten (ΔP/Δt; interstitielles Volumen; Koronarfluß)” value under setting [4] is “vollständig aufgehoben”.

Values taken from patent EP1100539B1, “COMBINATION OF ACTIVE SUBSTANCES, ESPECIALLY FOR THE PROPHYLAXIS AND THERAPY OF ISCHAEMIC ORGANIC LESIONS AND REPERFUSION SYNDROMES” (Vascular Biotech GmbH, priority 1998, dated 2000).
